Patent publication US20250228826A1, “COMBINATION OF A GREMLIN-1 ANTAGONIST WITH AN INHIBITOR OF RAS-RAF-MEK-ERK SIGNALLING” (UCB BIOPHARMA SRL, priority 2022, published 2025)
“And” between values parts separate entries of the source, which are not always exact repeats. Equal values may be shown once.

How the values were obtained:
[1] = tested on: pancreatic tumours in KPC mice; experiment: Survival of KPC mice from start of treatment, Kaplan-Meier and Log-Rank (Examples 3 and 4); format: in vivo; details: for Median survival: KPC mice survival cohort
From the text: (§1) LSL-Kras^G12D/+; Trp53^R172H/+; Pdx1-Cre (KPC) mice have been described previously (Hingorani et al., 2005). Mice were generated by crossing mice bearing Pdx1-Cre, and conditional LSL-KrasG12D or LSL-Trp53R172H alleles (strains 01XJ6 and 01XL9, Mouse Models of Human Cancer Consortium [MMHCC], NCI-Frederick, Frederick, MD, USA). Mice on a mixed background were bred in-house at the CRUK Beatson Institute and maintained in conventional caging with environmental enrichment, access to standard chow and water ad libitum. Genotyping was performed by Transnetyx (Cordoba, TN, USA). Mice of both sexes were recruited onto study. All animal experiments were performed under a UK Home Office licence and approved by the University of Glasgow Animal Welfare and Ethical Review Board.
Mice were monitored 3 times weekly until a diagnosis of pancreatic cancer was made by abdominal palpation and confirmed by ultrasound imaging. […] There were >12 mice per group. Mice were monitored daily and sacrificed either at 7 days post-initiation of treatment (4 mice per group) or when reaching ethical endpoint (>8 mice per group, symptoms include abdominal distension, cachexia, intermittent hunching or reduced mobility, piloerection, mild diarrhoea, anaemia). Statistical assessment of survival of these mice from start of treatment was carried out by Kaplan-Meier and Log-Rank analysis.
Mice were monitored at least weekly by palpation until pancreatic tumours were detectable.
For the survival cohort (Table 4), high resolution ultrasound imaging was performed weekly over the treatment period in order to monitor the tumour burden of each individual mouse on treatment. Mice remained on study and were closely monitored until ethical endpoint was reached, at which time they were sacrificed as per institutional guidelines.

[2] = tested on: pancreatic tumours in KPC mice; experiment: Survival of KPC mice, Cox's proportional hazards model (Example 5); format: in vivo, mouse; details: for Median survival: KPC mice, Example 5 cohort (Table 8), Ab7326 mIgG1 30 mg/kg s.c. twice weekly, Selumetinib 25 mg/kg p.o. b.i.d., UCB-554 10 mg/kg p.o. every 2 days; for Hazard ratio Ab7326/treatment: comparator Ab7326 alone
From the text: as §1
(§2) Mice were monitored 3 times weekly until a diagnosis of pancreatic cancer was made by abdominal palpation and confirmed by ultrasound imaging. […] Mice were monitored daily and sacrificed when reaching ethical endpoint.
(§3) Statistical assessment of survival of these mice from start of treatment was carried out using a Cox's proportional hazards model to calculate hazard ratios. Tumour volume data at day 7 data were analysed using a linear model suitable for a randomised design, fitting Treatment Tumour volume at day 0 was used as a covariate to increase the precision of the estimates.

[3] = tested on: pancreatic tumours in KPC mice; experiment: Tumour volume by 3D ultrasound imaging in KPC mice (Example 5); format: in vivo, mouse
Experimental: The VisualSonics Vevo 3100 preclinical imaging platform (FUJIFILM VisualSonics, Toronto, Canada) was used for high-resolution ultrasound imaging to confirm tumour diagnosis and for weekly monitoring of tumour progression. Anaesthesia was induced and maintained with a mixture of isoflurane and medical air. Tumour volume was calculated weekly for each mouse and plotted longitudinally.
as §2, §3
The volume of the pancreatic tumours in control or treated KPC mice was measured over time using 3D tumour imaging by ultrasound.

## Cn1cnc2c(F)c(Nc3ccc(Br)cc3Cl)c(C(=O)NOCCO)cc21 [Selumetinib, 6-(4-bromo-2-chloroanilino)-7-fluoro-N-(2-hydroxyethoxy)-3-methylbenzimidazole-5-carboxamide]
[1]; Example 4, same doses as Table 4
  Median survival: 17 days
[1]; Table 4 (text b395 gives days), Ab7326 mIgG1 30 mg/kg s.c. twice weekly, Selumetinib 25 mg/kg p.o. b.i.d., Selumetinib arm historical data
  Median survival: 17
[1]; survival of individual KPC mice on treatment, one line per mouse (Table 6)
  Days on Rx: 9 Days and 13 Days and 15 Days and 17 Days (2×) and 20 Days and 32 Days and 33 Days
[2]
  Median survival: 22 days
[2]; Table 10, combined dataset Table 4 + Table 8, Cox model
  Hazard ratio Vehicle/treatment: 1.77
[2]; Table 10, combined dataset Table 4 + Table 8
  Hazard ratio Ab7326/treatment: 1.31
[3]
  tumour volume at day 7 after start of treatment compared to vehicle or Ab7326 treatment alone: mean tumour volume is reduced

## NCC1CN(C(=O)c2c(Nc3ccc(I)cc3F)sc3ncccc23)C1 [UCB-554, [3-(Aminomethyl)azetidin-1-yl]-{2-[(2-fluoro-4-iodophenyl)amino]thieno[2,3-b]pyridin-3-yl}-methanone]
[2]; Example 5 cohort, in words
  survival of KPC mice over vehicle only control or Ab7326 treatment: moderate increase in survival
[2]
  Median survival: 21 days
[2]; Table 9, Example 5 cohort, Cox model, >1 favours treatment
  Hazard ratio Vehicle/treatment: 2.04
[2]; Table 9, Example 5 cohort, Cox model
  Hazard ratio Ab7326/treatment: 2.50
[3]
  tumour volume at day 7 after start of treatment compared to vehicle or Ab7326 treatment alone: tumour volume is reduced
